In the supplement of paper PMC10307832:

Key:
Test in all cases: relative viability (nuclei count vs DMSO), 5 days (fraction); higher = more cells survive
[1] = compound: C1/C(=C\C2=CC=CS2)/C(=O)/C(=C/C3=CC=CS3)/C1 + COc1cccc2cc(-c3nc([C@H]4CC[C@H](C(=O)O)CC4)n4ncnc(N)c34)[nH]c12 [OSI-027] (partner 0.5 µM)
How it was run: (§1)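 Values are medians from duplicate plates. Each reflects relative viability, defined as the nuclei count of treated wells over that of vehicle wells. Lung cancer cell lines in 1536-well plates were pin-tool dosed one day after seeding with one drug alone or with a fixed anchor-drug dose plus five library-drug doses (not always all listed) in √10 steps, then fixed, stained and imaged at 4× after 5 days.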

[2] = compound: C1/C(=C\C2=CC=CS2)/C(=O)/C(=C/C3=CC=CS3)/C1 + Nc1ncn([C@H]2C[C@H](O)[C@@H](CO)O2)c(=O)n1 [Decitabine] (partner 2 µM)
How it was run: as §1

TPCA-1 + AZD7762 = compound: C1=CC(=CC=C1C2=CC(=C(S2)NC(=O)N)C(=O)N)F [TPCA-1] + NC(=O)Nc1cc(-c2cccc(F)c2)sc1C(=O)N[C@H]1CCCNC1 [AZD7762] (partner 0.2 µM)
How it was run: as §1

TPCA-1 + Navitoclax = compound: C1=CC(=CC=C1C2=CC(=C(S2)NC(=O)N)C(=O)N)F [TPCA-1] + CC1(C)CCC(c2ccc(Cl)cc2)=C(CN2CCN(c3ccc(C(=O)NS(=O)(=O)c4ccc(N[C@H](CCN5CCOCC5)CSc5ccccc5)c(S(=O)(=O)C(F)(F)F)c4)cc3)CC2)C1 [Navitoclax] (partner 0.5 µM)
How it was run: as §1

Cell Line	relative viability ([1]; first compound 0.2 µM)	relative viability ([1]; first compound 0.6325 µM)	relative viability ([1]; first compound 2 µM)	relative viability ([1]; first compound 6.325 µM)	relative viability ([1]; first compound 20 µM)	relative viability ([2]; first compound 0.2 µM)	relative viability ([2]; first compound 0.6325 µM)	relative viability ([2]; first compound 2 µM)	relative viability ([2]; first compound 6.325 µM)	relative viability ([2]; first compound 20 µM)	relative viability (TPCA-1 + AZD7762; first compound 0.04 µM)	relative viability (TPCA-1 + AZD7762; first compound 0.1265 µM)	relative viability (TPCA-1 + AZD7762; first compound 0.4 µM)	relative viability (TPCA-1 + AZD7762; first compound 1.265 µM)	relative viability (TPCA-1 + AZD7762; first compound 4 µM)	relative viability (TPCA-1 + Navitoclax; first compound 0.04 µM)	relative viability (TPCA-1 + Navitoclax; first compound 0.1265 µM)	relative viability (TPCA-1 + Navitoclax; first compound 0.4 µM)	relative viability (TPCA-1 + Navitoclax; first compound 1.265 µM)	relative viability (TPCA-1 + Navitoclax; first compound 4 µM)
NCI-H522	0.793	0.715	0.841	0.518	0.727	0.738	0.753	0.722	0.673	0.604	0.898	0.904	0.857	0.853	0.894	–	–	–	–	–
LCLC-97TM1	0.503	0.605	0.627	0.428	0.486	0.25	0.241	0.219	0.173	0.19	0.231	0.237	0.223	0.164	0.217	0.394	0.494	0.446	0.259	0.238
NCI-H1299	–	–	–	–	–	–	–	–	–	–	–	–	–	–	–	1.08	1.02	1.02	1.04	1.07
NCI-H2009	0.622	0.755	0.707	0.557	0.607	0.356	0.381	0.359	–	0.347	–	–	–	–	–	1.2	1.18	1.08	1.19	1.12
Calu-6	–	–	–	–	–	–	–	–	–	–	–	–	–	–	–	0.893	0.795	0.888	0.726	0.394
NCI-H1703	–	–	–	–	–	–	–	–	–	–	0.132	0.118	0.136	–	0.122	1.18	0.955	1.12	0.774	0.807
NCI-H1650	0.727	0.713	0.743	0.544	0.733	0.484	0.374	0.442	0.499	0.354	–	–	–	–	–	1.3	1.05	1.27	1.09	1.1
NCI-H2342	0.626	0.644	0.741	0.52	0.607	0.819	0.73	0.713	0.752	0.653	0.504	0.469	0.403	0.349	0.404	–	–	–	–	–
COR-L23	0.804	0.816	0.732	0.709	0.749	0.427	0.411	0.488	0.472	0.417	–	–	–	–	–	1.28	0.953	1.03	1.03	0.733
NCI-H1623	0.455	0.465	0.445	0.434	0.405	–	–	–	–	–	–	–	–	–	–	–	–	–	–	–
NCI-H650	0.578	0.465	0.591	0.53	0.485	0.311	0.293	0.293	0.307	0.306	1.03	0.895	1.1	0.541	0.906	–	–	–	–	–
CAL-12T	0.64	0.886	0.709	0.335	0.547	–	–	–	–	–	0.702	0.583	0.667	0.565	0.555	1.1	1.15	1.17	1.16	1.11
NCI-H2228	0.62	0.602	0.81	0.521	0.537	–	–	–	–	–	–	–	–	–	–	0.758	0.68	1.18	0.656	0.595
NCI-H661	0.766	0.753	0.736	0.664	0.735	0.605	0.567	0.56	0.475	0.496	–	–	–	–	–	–	–	–	–	–
SK-LU-1	0.36	0.388	0.398	0.315	0.396	0.6	0.627	0.749	0.478	0.665	–	–	–	–	–	0.962	0.785	0.789	0.7	0.566
SW 1573	0.603	0.724	0.756	0.599	0.617	0.609	0.502	0.552	0.408	0.456	–	–	–	–	–	1.14	0.866	0.916	0.962	0.948
SW 900	0.63	0.492	0.612	0.531	0.796	0.404	0.434	0.375	0.42	0.438	–	–	0.685	0.631	0.586	–	–	–	–	–
ABC-1	0.645	0.583	0.647	0.426	0.498	1.22	1	1.2	0.87	0.972	–	0.606	0.935	0.836	0.945	–	–	–	–	–
NCI-H1648	0.282	0.269	0.307	–	0.258	0.489	0.478	0.603	0.45	0.432	0.807	0.682	0.684	0.806	0.668	–	–	–	–	–
NCI-H2023	0.394	0.469	0.425	0.304	0.364	0.247	0.234	0.228	0.21	0.236	–	–	–	–	–	1.14	0.98	1.04	0.938	0.912
SK-MES-1	0.598	0.689	0.627	0.55	0.616	0.408	0.424	0.409	0.335	0.348	–	–	–	–	–	1.3	1.07	1.22	1.16	0.797
IA-LM	–	–	–	–	–	–	–	–	–	–	–	–	–	–	–	0.855	0.595	0.72	0.617	0.678
A549	–	–	–	–	–	0.281	0.295	0.237	0.384	0.229	–	–	–	–	–	1.29	1.2	1.17	1.29	0.777
LCLC-103H	0.466	0.464	0.603	0.502	0.426	0.803	0.747	0.77	0.554	0.742	0.896	0.84	0.824	0.617	0.8	–	–	–	–	–
NCI-H358	0.807	0.801	0.914	–	0.651	0.217	0.207	0.212	0.203	0.192	0.467	0.406	0.73	0.501	0.312	–	–	–	–	–
